# Several values for one entry are separate records, joined by “and”; a condition that tells them apart may be missing. Equal values may be shown once. Read-outs that look alike come from different tables or passages of the source.
# What was measured:
# [1] = Plasma protein binding by equilibrium dialysis; assay type: in vitro ADME, human; conditions: for fraction unbound at 5 h, 10 µg mL^−1: human, pooled human plasma, pH 7.4, equilibrium dialysis 5 h, 37 °C
# [2] = Metabolic stability, pooled human liver microsome incubations; conditions: for Predicted In Vivo Hepatic Clearance, CLH: from pHLM CLint, well-stirred model with plasma fu, Q 21 mL min^−1 kg^−1; for CLint scaled at 0.5 µM / half-life at 0.5 µM: human, microsomes; for CLint scaled at 0.5 µM: pH 7.4, Intrinsic clearance; for half-life at 0.5 µM: pH 7.4, T1/2 (min), pHLM 0.5 mg mL^−1, 0.5 µM, NADPH, 37 °C; for half-life at 0.5 µM / Microsomal Intrinsic Clearance, CLint micr: n ≥ 3 ± SD
# [3] = Short-term plasma stability with and without esterase inhibitors; conditions: 37 °C; for remaining at 3 h, 5 µM / remaining at 5 h: human, pH 7.4, Parent Compound Remaining (%)
# [4] = Metabolic stability, pooled human cryopreserved hepatocyte incubations; conditions: human, hepatocytes; for CLint scaled at 0.5 µM: Intrinsic clearance, pHHeps, alternative hepatocyte cell density 99x10^6 hepatocytes per gram liver; for half-life at 0.5 µM: T1/2 (min), pHHeps 0.25 million cells mL^−1, 0.5 µM, 37 °C, n ≥ 3 ± SD
# [5] = tested on: pooled human cryopreserved hepatocytes (pHHeps); assay: as above; conditions: for Predicted In Vivo Hepatic Clearance, CLH: from pHHeps CLint, well-stirred model with plasma fu, Q 21 mL min^−1 kg^−1
# [6] = 10 µg mL^−1, read-out: PPB (%) (converted)
# [7] = plasma, read-out: Fraction Unbound (fu)
# [8] = pHLM, alternative microsomal scaling factor 32 mg microsomal protein per gram liver
# [9] = pHLM, alternative microsomal scaling factor 45 mg microsomal protein per gram liver
# [10] = pHLM, scaling factor 32 mg microsomal protein per gram liver
# [11] = pHLM, scaling factor 45 mg microsomal protein per gram liver
# [12] = Esterase Inhibitors, pH 7.4, BNPP and PMSF 500 µM each
# [13] = plasma, No Esterase Inhibitors, pH 7.4, pooled human plasma
# [14] = pHHeps, 99x10^6 hepatocytes per gram liver
SMILES,"fraction unbound at 5 h, 10 µg mL^−1 [1, 6]","fraction unbound at 5 h, 10 µg mL^−1 [1, 7]","Predicted In Vivo Hepatic Clearance, CLH [2]","Hepatic extraction ratio, EH ([2]; from pHLM incubations)","CLint scaled at 0.5 µM [2, 8]","CLint scaled at 0.5 µM [2, 9]",half-life at 0.5 µM [2],"% parent compound remaining, Average ([2]; pHLM, 3 min)","% parent compound remaining, Average ([2]; pHLM, 6 min)","% parent compound remaining, Average ([2]; pHLM, 9 min)","% parent compound remaining, Average ([2]; pHLM, 15 min)","% parent compound remaining, Average ([2]; pHLM, 30 min)","Microsomal Intrinsic Clearance, CLint micr ([2]; pHLM)","Hepatic extraction ratio, EH [2, 10]","Predicted in vivo hepatic clearance, CLH [2, 10]","Predicted in vivo hepatic clearance, CLH [2, 11]","remaining at 3 h, 5 µM [3, 13]",CLint scaled at 0.5 µM [4],half-life at 0.5 µM [4],"Predicted In Vivo Hepatic Clearance, CLH [5]",other results
COC(=O)[C@@H](NC(=O)c1nn(Cc2ccc(F)cc2)c2ccccc12)C(C)(C)C [(S)-MDMB-FUBINACA (6)],0.005,0.005 ± 0.0008,0.87 ± 0.18 mL/min/kg,0.04 ± 0.009,111 mL/min/kg,156 mL/min/kg,11 ± 2.4 min,70.2%,64.2%,55.8%,34.3%,16.4%,0.135 ± 0.030 mL min^−1 mg Microsomal Protein^−1,0.03 ± 0.006,0.54 ± 0.12 mL/min/kg,0.75 ± 0.16 mL/min/kg,94.2 ± 6.3%,275 mL/min/kg,26 ± 5 min,1.39 mL/min/kg and 1.39 ± 0.27 mL/min/kg,"Hepatic extraction ratio, EH [2, 11]: 0.04 ± 0.008; remaining at 3 h, 5 µM [3, 12]: 91.6 ± 2.2%; Hepatic extraction ratio, EH ([5]; from pHHeps incubations): 0.07 and 0.07 ± 0.013; Hepatic extraction ratio, EH [5, 14]: 0.06 ± 0.012; Predicted in vivo hepatic clearance, CLH [5, 14]: 1.29 ± 0.25 mL/min/kg; % parent compound remaining, Average ([5]; pHHeps, 3 min): 90.3%; % parent compound remaining, Average ([5]; pHHeps, 6 min): 73.3%; % parent compound remaining, Average ([5]; pHHeps, 9 min): 80.1%; % parent compound remaining, Average ([5]; pHHeps, 15 min): 73.3%; % parent compound remaining, Average ([5]; pHHeps, 30 min): 38.8%; % parent compound remaining, Average ([5]; pHHeps, 45 min): 17.3%; % parent compound remaining, Average ([5]; pHHeps, 60 min): 9.1%"
"C=CCCCn1nc(C(=O)N[C@H](C(=O)OC)C(C)(C)C)c2ccccc21 [(S)-MDMB-4en-PINACA (5), methyl 3,3-dimethyl-2-[1-(pent-4-en-1-yl)-1H-indazole-3-carboxamido] butanoate]",0.01,0.01 ± 0.0001,2.66 ± 0.37 mL/min/kg,0.13 ± 0.018,186 mL/min/kg,262 ± 42.3 mL/min/kg,6.3 ± 1 min,72.3%,52.7%,36.7%,18.6%,3.1%,0.226 ± 0.037 mL min^−1 mg Microsomal Protein^−1,0.08 ± 0.012,1.71 mL/min/kg,2.32 ± 0.33 mL/min/kg,94.8 ± 0.7%,632 mL/min/kg,12 ± 2.6 min,5.11 ± 0.89 mL/min/kg,"Hepatic extraction ratio, EH [2, 11]: 0.11 ± 0.016; remaining at 3 h, 5 µM ([3]; plasma, Esterase Inhibitors, pH 7.4, BNPP and PMSF 500 µM each): 89 ± 3.3%; Hepatic extraction ratio, EH ([5]; from pHHeps incubations): 0.24 ± 0.042; Hepatic extraction ratio, EH [5, 14]: 0.23; Predicted in vivo hepatic clearance, CLH [5, 14]: 4.82 mL/min/kg; % parent compound remaining, Average ([5]; pHHeps, 3 min): 79.7%; % parent compound remaining, Average ([5]; pHHeps, 6 min): 69.0%; % parent compound remaining, Average ([5]; pHHeps, 9 min): 56.7%; % parent compound remaining, Average ([5]; pHHeps, 15 min): 41.1%; % parent compound remaining, Average ([5]; pHHeps, 30 min): 17.1%; % parent compound remaining, Average ([5]; pHHeps, 45 min): 7.6%; % parent compound remaining, Average ([5]; pHHeps, 60 min): 3.4%"
"COC(=O)[C@@H](NC(=O)c1nn(Cc2ccc(F)cc2)c2ccccc12)C(C)C [(S)-AMB-FUBINACA (1), methyl [1-(4-fluorobenzyl)-1H-indazole-3-carbonyl]valinate]",0.019,0.019 ± 0.0008,15.27 ± 0.14 mL/min/kg,0.73 ± 0.006,1790 mL/min/kg,2520 mL/min/kg,0.6 ± 0.02 min,3.8%,0.7%,0.2%,0.1%,0.3%,2.182 ± 0.071 mL min^−1 mg Microsomal Protein^−1,0.62 ± 0.008,12.99 mL/min/kg,14.60 mL/min/kg,96.6 ± 3.8%,2980 mL/min/kg,2.5 ± 0.55 min,15.52 ± 0.85 mL/min/kg,"recovery (total peak area in dialysed samples vs 4 °C samples) ([1]; PPB thermal stability control, 5 h): 77 ± 4.4%; Parent Compound Remaining (%), Esterase Inhibitors ([3]; 5 h, pH 7.4, BNPP and PMSF 500 µM each): 93.5 ± 0.1%; Parent Compound Remaining (%), No Esterase Inhibitors ([3]; 5 h, pH 7.4, pooled human plasma): 85.9 ± 4.0%; remaining at 3 h, 5 µM [3, 12]: 96.1 ± 1.6%; remaining at 5 h ([3]; Esterase Inhibitors, 5 h, pH 7.4, BNPP and PMSF 500 µM each): 94 ± 0.1%; remaining at 5 h ([3]; plasma, No Esterase Inhibitors, 5 h, pH 7.4, pooled human plasma): 86 ± 4%; Hepatic extraction ratio, EH ([5]; from pHHeps incubations): 0.74 ± 0.041; Hepatic extraction ratio, EH [5, 14]: 0.72 ± 0.042; Predicted in vivo hepatic clearance, CLH [5, 14]: 15.21 ± 0.88 mL/min/kg; % parent compound remaining, Average ([5]; pHHeps, 3 min): 37.0%; % parent compound remaining, Average ([5]; pHHeps, 6 min): 18.7%; % parent compound remaining, Average ([5]; pHHeps, 9 min): 14.7%; % parent compound remaining, Average ([5]; pHHeps, 15 min): 6.2%; % parent compound remaining, Average ([5]; pHHeps, 30 min): 1.4%; % parent compound remaining, Average ([5]; pHHeps, 45 min): 1.1%; % parent compound remaining, Average ([5]; pHHeps, 60 min): 0.8%"
"C=CCCCn1cc(C(=O)N[C@H](C(=O)OC)C(C)(C)C)c2ccccc21 [(S)-MDMB-4en-PICA (12), methyl 3,3-dimethyl-2-[1-(pent-4-en-1-yl)-1H-indole-3-carboxamido]butanoate]",0.035,0.035 ± 0.0031,5.69 ± 0.61 mL/min/kg,0.27 ± 0.029,137 mL/min/kg,192 mL/min/kg,8.5 ± 1.3 min,77.5%,62.6%,50.2%,28.5%,5.6%,0.166 ± 0.024 mL min^−1 mg Microsomal Protein^−1,0.18 ± 0.022,3.88 mL/min/kg,5.07 ± 0.57 mL/min/kg,91.5 ± 8.6%,197 mL/min/kg,37 ± 6.9 min,5.46 ± 0.78 mL/min/kg,"Hepatic extraction ratio, EH [2, 11]: 0.24 ± 0.027; remaining at 3 h, 5 µM [3, 12]: 89.4 ± 2.3%; Hepatic extraction ratio, EH ([5]; from pHHeps incubations): 0.26 ± 0.037; Hepatic extraction ratio, EH [5, 14]: 0.25; Predicted in vivo hepatic clearance, CLH [5, 14]: 5.15 mL/min/kg; % parent compound remaining, Average ([5]; pHHeps, 3 min): 93.4%; % parent compound remaining, Average ([5]; pHHeps, 6 min): 83.7%; % parent compound remaining, Average ([5]; pHHeps, 9 min): 80.4%; % parent compound remaining, Average ([5]; pHHeps, 15 min): 74.0%; % parent compound remaining, Average ([5]; pHHeps, 30 min): 51.6%; % parent compound remaining, Average ([5]; pHHeps, 45 min): 34.2%; % parent compound remaining, Average ([5]; pHHeps, 60 min): 25.0%"
"COC(=O)[C@@H](NC(=O)c1nn(CCCCCF)c2ccccc12)C(C)C [(S)-5F-AMB-PINACA (10), methyl [1-(5-fluoropentyl)-1H-indazole-3-carbonyl]valinate]",0.058,0.058 ± 0.0008,17.79 mL/min/kg and 17.79 ± 0.20 mL/min/kg,0.85 and 0.85 ± 0.010,1230 mL/min/kg,1730 ± 133 mL/min/kg,0.9 ± 0.07 min,10.6%,1.8%,0.0%,0.0%,0.0%,1.494 ± 0.115 mL min^−1 mg Microsomal Protein^−1,0.77 ± 0.013,16.21 mL/min/kg,17.35 ± 0.22 mL/min/kg,93 ± 6.1%,2220 ± 115 mL/min/kg,3.2 ± 0.16 min,18.25 mL/min/kg and 18.25 ± 0.12 mL/min/kg,"Hepatic extraction ratio, EH [2, 11]: 0.83 ± 0.011; remaining at 3 h, 5 µM [3, 12]: 89.8 ± 1.5%; Hepatic extraction ratio, EH ([5]; from pHHeps incubations): 0.87 and 0.87 ± 0.006; Hepatic extraction ratio, EH [5, 14]: 0.86 ± 0.006; Predicted in vivo hepatic clearance, CLH [5, 14]: 18.06 ± 0.13 mL/min/kg; % parent compound remaining, Average ([5]; pHHeps, 3 min): 60.1%; % parent compound remaining, Average ([5]; pHHeps, 6 min): 23.2%; % parent compound remaining, Average ([5]; pHHeps, 9 min): 11.4%; % parent compound remaining, Average ([5]; pHHeps, 15 min): 3.0%; % parent compound remaining, Average ([5]; pHHeps, 30 min): 0.3%; % parent compound remaining, Average ([5]; pHHeps, 45 min): 0.1%; % parent compound remaining, Average ([5]; pHHeps, 60 min): 0.2%"
